According to patent US11773094B2, “Farnesoid X receptor agonists and uses thereof” (Metacrine, Inc., priority 2018, dated 2023):

What follows are molecules tested against T1, hFXR (Homo sapiens, UniProt Q96RI1) (assay: In Vitro FXR Assay (TK): TK-ECRE-luc reporter in transfected CV-1 cells). Details: CV-1 cells transfected with hFXR, hRXR, pCMX-YFP, 18 hrs incubation, luminescence.
T1 construct: expressed in transfected cells; host or cells: CV-1 cells
T1 sequence (Q96RI1 1-486): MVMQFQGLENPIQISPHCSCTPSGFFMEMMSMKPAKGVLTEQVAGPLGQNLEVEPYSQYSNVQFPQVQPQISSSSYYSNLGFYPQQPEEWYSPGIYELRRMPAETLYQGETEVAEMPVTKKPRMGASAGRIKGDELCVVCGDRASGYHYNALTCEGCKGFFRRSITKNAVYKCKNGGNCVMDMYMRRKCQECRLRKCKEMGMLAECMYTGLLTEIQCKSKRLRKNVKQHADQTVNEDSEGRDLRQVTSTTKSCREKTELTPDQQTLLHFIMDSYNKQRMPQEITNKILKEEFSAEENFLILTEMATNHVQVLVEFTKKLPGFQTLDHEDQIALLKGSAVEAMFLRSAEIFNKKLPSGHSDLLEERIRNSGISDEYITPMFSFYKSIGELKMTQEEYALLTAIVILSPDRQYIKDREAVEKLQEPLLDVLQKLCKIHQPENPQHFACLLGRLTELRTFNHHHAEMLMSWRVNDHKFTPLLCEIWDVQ
T1 sequence (P19793 1-462 partner): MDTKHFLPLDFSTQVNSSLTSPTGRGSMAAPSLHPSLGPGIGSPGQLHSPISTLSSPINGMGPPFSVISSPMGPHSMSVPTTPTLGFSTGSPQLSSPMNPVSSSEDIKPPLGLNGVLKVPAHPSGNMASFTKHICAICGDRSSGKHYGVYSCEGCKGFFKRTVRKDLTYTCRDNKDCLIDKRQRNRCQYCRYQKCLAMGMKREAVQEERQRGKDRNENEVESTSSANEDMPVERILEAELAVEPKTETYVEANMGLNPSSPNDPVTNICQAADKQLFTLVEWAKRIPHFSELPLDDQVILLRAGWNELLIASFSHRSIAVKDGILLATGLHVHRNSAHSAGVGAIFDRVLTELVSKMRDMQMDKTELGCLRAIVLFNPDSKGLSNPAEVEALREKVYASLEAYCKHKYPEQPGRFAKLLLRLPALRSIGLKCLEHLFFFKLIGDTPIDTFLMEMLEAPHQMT
Assay type: cell-based
Procedure, shortened: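 Reporter gene assay: CV-1 cells co-expressing hFXR, hRXR, TK-ECRE-luc and pCMX-YFP after overnight transfection in charcoal-stripped serum. Treatment with serially diluted compounds lasted 18 hrs at 37 °C, followed by cell lysis and a luminescence measurement.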

| EC50 [nM] | SMILES |
| --- | --- |
| ≤ 10 | COc1ccc(C23CCC(CN(c4cc(-c5cnn(C(C)(C)C)c5)ccn4)C(=O)[C@H]4CC[C@H](OC(=O)N5CC[C@@H](O)C5)CC4)(CC2)CC3)cc1C [Compound 2.33, (R)-4-((4-(1-(tert-Butyl)-1H-pyrazol-4-yl)pyridin-2-yl)((4-(4-methoxy-3-methylphenyl)bicyclo[2.2.2]octan-1-yl)methyl)carbamoyl) cyclohexyl trans-3-hydroxypyrrolidine-1-carboxylate] |
| ≤ 10 | COc1ccc(C23CCC(CN(c4cc(-c5cnn(C(C)(C)C)c5)ccn4)C(=O)[C@H]4CC[C@H](OC(=O)N5CC[C@H](O)C5)CC4)(CC2)CC3)cc1C [Compound 2.34, (S)-4-((4-(1-(tert-Butyl)-1H-pyrazol-4-yl)pyridin-2-yl)((4-(4-methoxy-3-methylphenyl)bicyclo[2.2.2]octan-1-yl)methyl)carbamoyl) cyclohexyl trans-3-hydroxypyrrolidine-1-carboxylate] |
| 10 to 1000 | COc1ccc(C23CCC(CN(c4cc(-n5ccc(C(C)(C)C)n5)ccn4)C(=O)[C@H]4CC[C@H](OC(=O)N5CC(O)C5)CC4)(CC2)CC3)cc1C [Compound 2.35, 4-((4-(3-(tert-Butyl)-1H-pyrazol-1-yl)pyridin-2-yl)((4-(4-methoxy-3-methylphenyl)bicyclo[2.2.2]octan-1-yl)methyl)carbamoyl) cyclohexyl trans-3-hydroxyazetidine-1-carboxylate] |
| 10 to 1000 | COc1ccc(C23CCC(CN(c4cc(-c5cnn(C(C)(C)C)c5)ncn4)C(=O)[C@H]4CC[C@H](OC(=O)N5CC(O)C5)CC4)(CC2)CC3)cc1C [Compound 2.36, 4-((6-(1-(tert-Butyl)-1H-pyrazol-4-yl)pyrimidin-4-yl)((4-(4-methoxy-3-methylphenyl)bicyclo[2.2.2]octan-1-yl)methyl)carbamoyl) (trans-cyclohexyl) 3-hydroxyazetidine-1-carboxylate] |
| 10 to 1000 | COc1c(C)cc(C23CCC(CN(c4cc(-c5cnn(C(C)(C)C)c5)ncn4)C(=O)[C@H]4CC[C@H](OC(=O)N5CC(O)C5)CC4)(CC2)CC3)cc1C [Compound 2.37, 4-((6-(1-(tert-Butyl)-1H-pyrazol-4-yl)pyrimidin-4-yl)((4-(4-methoxy-3,5-dimethylphenyl)bicyclo[2.2.2]octan-1-yl)methyl)carbamoyl) (trans-cyclohexyl) 3-hydroxyazetidine-1-carboxylate] |
| 10 to 1000 | COc1ccc(C23CCC(CN(c4cc(-c5cnn(C(C)(C)C)c5)ccn4)C(=O)[C@H]4CC[C@H](OC(=O)NC5CC[S+]([O-])CC5)CC4)(CC2)CC3)cc1C (stereo partly drawn) [Compound 2.38, (1r,4r)-4-((4-(1-(tert-Butyl)-1H-pyrazol-4-yl)pyridin-2-yl)((4-(4-methoxy-3-methylphenyl)bicyclo[2.2.2]octan-1-yl)methyl)carbamoyl)cyclohexyl (1-oxidotetrahydro-2H-thiopyran-4-yl)carbamate] |
| 10 to 1000 | COc1ccc(C23CCC(CN(c4cc(-c5cnn(C(C)(C)C)c5)ccn4)C(=O)[C@H]4CC[C@H](OC(=O)NC5CCS(=O)(=O)CC5)CC4)(CC2)CC3)cc1C [Compound 2.39, 4-((4-(1-(tert-Butyl)-1H-pyrazol-4-yl)pyridin-2-yl)((4-(4-methoxy-3-methylphenyl)bicyclo[2.2.2]octan-1-yl)methyl)carbamoyl) cyclohexyl trans-(1,1-dioxidotetrahydro-2H-thiopyran-4-yl)carbamate] |
| ≤ 10 | COc1ccc(C23CCC(CN(c4cc(-c5cnn(C(C)(C)C)c5)ccn4)C(=O)[C@H]4CC[C@H](OC(=O)N5CC(O)C5)CC4)(CC2)CC3)cc1C [Compound 3, 4-((4-(1-(tert-Butyl)-1H-pyrazol-4-yl)pyridin-2-yl)((4-(4-methoxy-3-methylphenyl)bicyclo[2.2.2]octan-1-yl)methyl)carbamoyl)cyclohexyl 3-hydroxyazetidine-trans-1-carboxylate] |
| ≤ 10 | COc1ccc(C23CCC(CN(c4cc(-c5cnn(C(C)(C)C)c5)ccn4)C(=O)[C@H]4CC[C@H](OC(=O)NC5CCOCC5)CC4)(CC2)CC3)cc1C [Compound 3.01, 4-((4-(1-(tert-Butyl)-1H-pyrazol-4-yl)pyridin-2-yl)((4-(4-methoxy-3-methylphenyl)bicyclo[2.2.2]octan-1-yl)methyl)carbamoyl) cyclohexyl (tetrahydro-2H-pyran-4-yl)trans-carbamate] |
| ≤ 10 | COc1ccc([C@]23CC[C@@](CN(c4cc(-c5cnn(C(C)(C)C)c5)ccn4)C(=O)[C@H]4CC[C@H](OC(=O)N5CC(CO)C5)CC4)(CC2)CC3)cc1C [Compound 3.02, 4-((4-(1-(tert-Butyl)-1H-pyrazol-4-yl)pyridin-2-yl)(trans(4-(4-methoxy-3-methylphenyl)bicyclo[2.2.2]octan-1-yl)methyl)carbamoyl) (trans-cyclohexyl) 3-(hydroxymethyl)azetidine-1-carboxylate] |
| ≤ 10 | COc1ccc(C23CCC(CN(c4cc(-c5cnn(C(C)(C)C)c5)ccn4)C(=O)[C@H]4CC[C@H](OC(=O)N5CCC(O)C5)CC4)(CC2)CC3)cc1C (stereo partly drawn) [Compound 3.03, 4-((4-(1-(tert-Butyl)-1H-pyrazol-4-yl)pyridin-2-yl)((4-(4-methoxy-3-methylphenyl)bicyclo[2.2.2]octan-1-yl)methyl)carbamoyl) (trans-cyclohexyl) 3-hydroxypyrrolidine-1-carboxylate] |
| ≤ 10 | COc1c(C)cc(C23CCC(CN(c4cc(-c5cnn(C(C)(C)C)c5)ccn4)C(=O)[C@H]4CC[C@H](OC(=O)N5CC(O)C5)CC4)(CC2)CC3)cc1C [Compound 3.04, 4-((4-(1-(tert-Butyl)-1H-pyrazol-4-yl)pyridin-2-yl)((4-(4-methoxy-3,5-dimethylphenyl)bicyclo[2.2.2]octan-1-yl)methyl)carbamoyl) (trans-cyclohexyl) 3-hydroxyazetidine-1-carboxylate] |
| ≤ 10 | COc1ncc(C23CCC(CN(c4cc(-c5cnn(C(C)(C)C)c5)ccn4)C(=O)[C@H]4CC[C@H](OC(=O)N5CC(O)C5)CC4)(CC2)CC3)cc1C [Compound 3.05, 4-((4-(1-(tert-Butyl)-1H-pyrazol-4-yl)pyridin-2-yl)((4-(6-methoxy-5-methylpyridin-3-yl)bicyclo[2.2.2]octan-1-yl)methyl)carbamoyl) (trans-cyclohexyl) 3-hydroxyazetidine-1-carboxylate] |
| 10 to 1000 | CN(C)c1ccc(C23CCC(CN(c4cc(-c5cnn(C(C)(C)C)c5)ccn4)C(=O)[C@H]4CC[C@H](OC(=O)N5CC(O)C5)CC4)(CC2)CC3)cn1 [Compound 3.06, 4-((4-(1-(tert-Butyl)-1H-pyrazol-4-yl)pyridin-2-yl)((4-(6-(dimethylamino)pyridin-3-yl)bicyclo[2.2.2]octan-1-yl)methyl)carbamoyl) (trans-cyclohexyl) 3-hydroxyazetidine-1-carboxylate] |
| ≤ 10 | COc1ccc(C23CCC(CN(c4cc(-c5cnc(C(C)(C)C)s5)ccn4)C(=O)[C@H]4CC[C@H](OC(=O)N5CC(O)C5)CC4)(CC2)CC3)cc1C [Compound 3.07, 4-((4-(2-(tert-Butyl)thiazol-5-yl)pyridin-2-yl)((4-(4-methoxy-3-methylphenyl)bicyclo[2.2.2]octan-1-yl)methyl)carbamoyl) cyclohexyl trans-3-hydroxyazetidine-1-carboxylate] |
| ≤ 10 | COc1ccc(C23CCC(CN(c4cc(-c5cnc(C(C)(C)C)s5)ccn4)C(=O)[C@H]4CC[C@H](OC(=O)N5CC(CO)C5)CC4)(CC2)CC3)cc1C [Compound 3.08, 4-((4-(2-(tert-Butyl)thiazol-5-yl)pyridin-2-yl)((4-(4-methoxy-3-methylphenyl)bicyclo[2.2.2]octan-1-yl)methyl)carbamoyl) (trans-cyclohexyl) 3-(hydroxymethyl)azetidine-1-carboxylate] |
| 10 to 1000 | COc1ccc(C23CCC(CN(c4cc(-c5cnc(C(C)(C)C)s5)ccn4)C(=O)[C@H]4CC[C@H](OC(=O)NC5CCOCC5)CC4)(CC2)CC3)cc1C [Compound 3.09, 4-((4-(2-(tert-Butyl)thiazol-5-yl)pyridin-2-yl)((4-(4-methoxy-3-methylphenyl)bicyclo[2.2.2]octan-1-yl)methyl)carbamoyl) cyclohexyl (tetrahydro-2H-pyran-4-yl)trans-carbamate] |
| ≤ 10 | COc1ccc(C23CCC(CN(c4cc(-c5coc(C(C)(C)C)n5)ccn4)C(=O)[C@H]4CC[C@H](OC(=O)N5CC(O)C5)CC4)(CC2)CC3)cc1C [Compound 3.10, 4-((4-(2-(tert-Butyl)oxazol-4-yl)pyridin-2-yl)((4-(4-methoxy-3-methylphenyl)bicyclo[2.2.2]octan-1-yl)methyl)carbamoyl)cyclohexyl 3-hydroxyazetidine-trans-1-carboxylate] |
